# In publication PMC2949399, “Gene Expression Signature-Based Screening Identifies New Broadly Effective Influenza A Antivirals” (PLoS ONE, 2010):
# Where two headings read alike, the source gives them in different places.
# Experiments:
# influenza A viruses = assay type: cell-based, influenza A virus
# [1] = system: A/Lyon/969/09 (H1N1 SOIV)
# in vitro = details: human
# [2] = system: A/New Caledonia/20/99 (H1N1); experiment: microbe, parasite or virus in culture; details: Influenza A virus
# [3] = system: A/Lyon/969/09 (H1N1 SOIV); experiment: microbe, parasite or virus in culture; details: Influenza A virus
# A/Turkey/582/2006 (H5N1) [4] = experiment: microbe, parasite or virus in culture; details: Influenza A virus
# [5] = system: A/Finch/England/2051/94 (H5N2); experiment: microbe, parasite or virus in culture; details: Influenza A virus, H5N2, A549, 65 h
# [6] = system: A/Chicken/Italy/2076/99 (H7N1); experiment: microbe, parasite or virus in culture; details: Influenza A virus, H7N1, A549, in Gallus gallus, 65 h
# [7] = system: A/New Caledonia/20/99 (H1N1)
# [8] = system: A/Finch/England/2051/94 (H5N2)
# [9] = system: A/Chicken/Italy/2076/99 (H7N1)
# A/Turkey/582/2006 (H5N1) [10] = system: A/Turkey/582/2006 (H5N1)
# [11] = H1N1, A549, 65 h, read-out: EC50 H1N1 moi 0.2
# [12] = H1N1, A549, 65 h, read-out: EC50 H1N1 moi 2
# [13] = H1N1, A549, 65 h, read-out: EC50 SOIV moi 0.2
# [14] = H1N1, A549, 65 h, read-out: EC50 SOIV moi 2
# [15] = H5N1, A549, 65 h, read-out: EC50 H5N1 moi 0.2
# [16] = H5N1, A549, 65 h, read-out: EC50 H5N1 moi 2
SMILES,Inhibitor class across the tested viruses (influenza A viruses),"SI = CC50/EC50, H1N1 SOIV [1]",CC50 (in vitro) [mM],"EC50 [2, 11] [µM]","EC50 [2, 12] [µM]","EC50 [3, 13] [µM]","EC50 [3, 14] [µM]",EC50 (A/Turkey/582/2006 (H5N1) [4]; [15]) [µM],EC50 (A/Turkey/582/2006 (H5N1) [4]; [16]) [µM],EC50 ([5]; read-out: EC50 H5N2 moi 0.2) [µM],EC50 ([5]; read-out: EC50 H5N2 moi 2) [µM],EC50 ([6]; read-out: EC50 H7N1 moi 0.2) [µM],EC50 ([6]; read-out: EC50 H7N1 moi 2) [µM],further results
"Nc1ccccc1S(N)(=O)=O [2-Aminobenzenesulfonamide, 2-aminobenzenesulfonamide]",inefficient,13,> 6.9,> 690,> 690,534,1820,> 690,> 690,> 690,> 690,> 690,> 690,Cytotoxicity at the highest tested dose (A549 cells): none of these molecules was cytotoxic at the highest tested dose
"CCN[C@H]1CN(CCCOC)S(=O)(=O)c2sc(S(N)(=O)=O)cc21 [Brinzolamide, brinzolamide]",weak to moderate inhibitors,31,0.666,28.9,435,21.6,167,> 500,> 500,146,232,139,551,"Inhibitor class / antiviral effect, H1N1 [7]: moderate inhibitor; Inhibitor class, H5N2 [8]: weak inhibitor; Inhibitor class, H7N1 [9]: weak inhibitor"
"Cc1nccc2c1[nH]c1cc(O)ccc12.Cl [Harmol, harmol hydrochloride]",,14,,,,,,,,,,,,CC50 (A549 cells): 95 µM; EC50 ([7]; read-out: EC50 H1N1 moi 0.2): 20.5 µM; EC50 ([7]; read-out: EC50 H1N1 moi 2): 60.4 µM; EC50 ([1]; read-out: EC50 SOIV moi 0.2): 6.76 µM; EC50 ([1]; read-out: EC50 SOIV moi 2): 53.7 µM; EC50 (A/Turkey/582/2006 (H5N1) [10]; read-out: EC50 H5N1 moi 0.2): 43.4 µM; EC50 (A/Turkey/582/2006 (H5N1) [10]; read-out: EC50 H5N1 moi 2): 77.5 µM; EC50 ([8]; read-out: EC50 H5N2 moi 0.2): 13.5 µM; EC50 ([8]; read-out: EC50 H5N2 moi 2): 4.06 µM; EC50 ([9]; read-out: EC50 H7N1 moi 0.2): 28 µM; EC50 ([9]; read-out: EC50 H7N1 moi 2): 49.4 µM
CCCCCCCCNC(C)C(O)c1ccc(SC(C)C)cc1 (stereo not drawn) [Sulodictil],,,0.1,,,,,,,,,,,
"CO[C@@]1(NC(=O)C(C(=O)O)c2ccc(O)cc2)C(=O)N2C(C(=O)O)=C(CSc3nnnn3C)CO[C@@H]21 (stereo partly drawn) [Latamoxef, moxalactam]",,,0.593,,,,,,,,,,,
"CO[C@H]1/C=C\C=C(/C)C(=O)NC2=CC(=O)C(NCCN(C)C)=C(C[C@@H](C)C[C@H](OC)[C@H](O)[C@@H](C)/C=C(\C)[C@@H]1OC(N)=O)C2=O [alvespimycin, Alvespimycin]",,,> 0.01,,,,,,,,,,,
Cc1cc(C(C)(C)CC(C)(C)C)ccc1OCCOCC[N+](C)(C)Cc1ccccc1 [Methylbenzethoniumchloride],,,,,,,,,,,,,,CC50 (A549 cells): 6.35 µM
"COc1ccc(OC)c(C(O)CNC(=O)CN)c1 (stereo not drawn) [Midodrine, midodrine]",weak to moderate inhibitors,40,> 4.25,29.8,1570,109,930,3900,> 4250,476,1670,> 4250,> 4250,"Cytotoxicity at the highest tested dose (A549 cells): none of these molecules was cytotoxic at the highest tested dose; SI = CC50/EC50, H5N1 (A/Turkey/582/2006 (H5N1) [10]): 1.09"
"O=C([O-])c1ccccc1-c1c2cc(Br)c(=O)cc-2oc2[c]([Hg+])c([O-])c(Br)cc12.[Na+].[Na+].[OH-] [Merbromin, merbromine]",,,,,,,,,,,,,,"EC50 (influenza A viruses; read-out: EC50 (all viruses tested)): ~50 µM; CC50 (A549 cells): 104 µM; SI = CC50/EC50, H1N1 [7]: 2.01; EC50 ([7]; read-out: EC50 H1N1 moi 0.2): 62 µM; EC50 ([7]; read-out: EC50 H1N1 moi 2): 29.6 µM; EC50 ([1]; read-out: EC50 SOIV moi 0.2): > 50 µM; EC50 ([1]; read-out: EC50 SOIV moi 2): 37.5 µM; EC50 (A/Turkey/582/2006 (H5N1) [10]; read-out: EC50 H5N1 moi 0.2): 46 µM; EC50 (A/Turkey/582/2006 (H5N1) [10]; read-out: EC50 H5N1 moi 2): 45 µM; SI = CC50/EC50, H5N2 [8]: 2.7; EC50 ([8]; read-out: EC50 H5N2 moi 0.2): 21.9 µM; EC50 ([8]; read-out: EC50 H5N2 moi 2): 36.5 µM; SI = CC50/EC50, H7N1 [9]: 2.4; EC50 ([9]; read-out: EC50 H7N1 moi 0.2): 46.7 µM; EC50 ([9]; read-out: EC50 H7N1 moi 2): 43.7 µM"
"C[S+](C)[O-] [DMSO, dimethylsulfoxide]",,,,,,,,,,,,,,EC50 ([7]; read-out: EC50 H1N1 moi 0.2): 174 µM; EC50 ([7]; read-out: EC50 H1N1 moi 2): > 1600 µM; EC50 ([1]; read-out: EC50 SOIV moi 0.2): 344 µM; EC50 ([1]; read-out: EC50 SOIV moi 2): 606 µM; EC50 (A/Turkey/582/2006 (H5N1) [10]; read-out: EC50 H5N1 moi 0.2): 1830 µM; EC50 (A/Turkey/582/2006 (H5N1) [10]; read-out: EC50 H5N1 moi 2): > 1600 µM; EC50 ([8]; read-out: EC50 H5N2 moi 0.2): 564 µM; EC50 ([8]; read-out: EC50 H5N2 moi 2): 734 µM; EC50 ([9]; read-out: EC50 H7N1 moi 0.2): 801 µM; EC50 ([9]; read-out: EC50 H7N1 moi 2): 1110 µM
"Nc1nc2c(c(=O)[nH]1)N(C=O)C(CNc1ccc(C(=O)N[C@@H](CCC(=O)O)C(=O)O)cc1)CN2 (stereo partly drawn) [Calcium Folinate, calcium folinate]",inefficient,,> 2.4,> 800,> 800,> 2400,> 2400,> 800,> 800,> 800,> 800,> 800,> 800,Cytotoxicity at the highest tested dose (A549 cells): none of these molecules was cytotoxic at the highest tested dose
O=C(O)CNC(=O)C(CS)Cc1ccccc1 (racemic) [DL-Thiorphan],,,6.28,,,,,,,,,,,
C1COC(NC(C2CC2)C2CC2)=N1 [Rilmenidine],,,,,,,,,,,,,,"CC50 (A549 cells): 1130 µM; EC50 ([7]; read-out: EC50 H1N1 moi 0.2): 24.2 µM; EC50 ([7]; read-out: EC50 H1N1 moi 2): 506 µM; Inhibitor class / antiviral effect, H1N1 SOIV [1]: ineffective; EC50 ([1]; read-out: EC50 SOIV moi 0.2): 864 µM; EC50 ([1]; read-out: EC50 SOIV moi 2): 1070 µM; EC50 (A/Turkey/582/2006 (H5N1) [10]; read-out: EC50 H5N1 moi 0.2): 1470 µM; EC50 (A/Turkey/582/2006 (H5N1) [10]; read-out: EC50 H5N1 moi 2): 2040 µM; EC50 ([8]; read-out: EC50 H5N2 moi 0.2): 359 µM; EC50 ([8]; read-out: EC50 H5N2 moi 2): 514 µM; EC50 ([9]; read-out: EC50 H7N1 moi 0.2): 778 µM; EC50 ([9]; read-out: EC50 H7N1 moi 2): 1050 µM"
"NC(=O)c1ncn([C@@H]2O[C@H](CO)[C@@H](O)[C@H]2O)n1 [Ribavirin, ribavirin]",strong inhibitor,482,29.5,6.63,73.8,61.1,292,48.4,632,6.71,16.4,12.5,32.4,"SI = CC50/EC50, H5N1 (A/Turkey/582/2006 (H5N1) [10]): 911; SI = CC50/EC50, H7N1 [9]: 1367; EC50 ([2]; H1N1, A549, read-out: EC50 H1N1 moi 0.2): 6 µM; EC50 ([3]; H1N1, A549, read-out: EC50 SOIV moi 0.2): 61 µM; EC50 ([3]; H1N1, A549, read-out: EC50 SOIV moi 2): 292 µM; EC50 (A/Turkey/582/2006 (H5N1) [4]; H5N1, A549, read-out: EC50 H5N1 moi 2): 632 µM"
COc1cnc(NS(=O)(=O)c2ccc(N)cc2)nc1 [Sulfameter],,,4.16,,,,,,,,,,,
